The text below walks through data of patent US20090143452A1, “Use of prochloraz for wood protection” (priority 2005, published 2009).

“Also recorded” adds a separate entry of the source. A value given as a limit tells only on which side of the number the result lay.

Assay [1] concerns soft-rot fungi. Briefly: Activity against soft rot, test based on ENV 807 (reduction in mass of treated Pinus sylvestris wood samples). To be noted: for Activity against soft-rot fungi in the test according to ENV 807 (in words): 0.3% active compound where stated; for Reduction in mass in % (mean): Pinus sylvestris specimens vacuum drenched with 0.3% active compound solution, ageing per EN 84, 20 weeks incubation. The method, then: The activity of prochloraz and of a copper/chromate preparation and tebuconazole, 3-iodo-2-propynyl butylcarbarbamate (IPBC) and imazalil was determined in a test based on ENV 807 (12/2001). To this end, test specimens of the wood type Pinus sylvestris of a size of 40×15×4 mm were vacuum drenched with 0.3 and 0.4% strength active compound solutions and conditioned for 14 days. This was followed by accelerated ageing according to EN 84.
Subsequently, the wood samples were placed on a malt agar medium according to EN 113 and inoculated with a spore suspension according to ENV 807. After 20 weeks of incubation, the reduction in mass of the wood samples treated was determined.

In assay [2] the test system is blueing fungi. To be noted: J. A. Drysdale et al., New Zealand Journal of Forestry Science 1982; cited from earlier work.

For the compound `CCCN(CCOc1c(Cl)cc(Cl)cc1Cl)C(=O)n1ccnc1` [Prochloraz, N-propyl-N-[2-(2,4,6-trichlorophenoxy)ethyl]imidazole-1-carboxamide], in assay [1], the “Activity against soft-rot fungi in the test according to ENV 807 (in words)” value (shortened to “Activity against soft-rot fungi”) is “broad activity” and the “Reduction in mass in % (mean)” value is recorded as <2%. Besides, the “Activity against soft-rot fungi” value in assay [1] (listed as prochloraz) is recorded as “excellent activity; also recorded: effect comparable to that of the 0.4% strength copper/chromium standard”. Further, the “Activity against blueing fungi (in words)” value in assay [2] is listed as “insufficiently active”.
For the compound `C=CCOC(Cn1ccnc1)c1ccc(Cl)cc1Cl` (stereo not shown) [Imazalil, imazalil], in assay [1], the “Activity against soft-rot fungi” value is “entirely insufficient activity; also recorded: insufficiently active” and the “Reduction in mass in % (mean)” value is >4%.
The corresponding values for `CCCCNC(=O)OCC#CI` [IPBC, 3-iodo-2-propynyl butylcarbarbamate] are “entirely insufficient activity; also recorded: insufficiently active” and >4%.
For `CC(C)(C)C(O)(CCc1ccc(Cl)cc1)Cn1cncn1` (stereo not shown) [Tebuconazole, tebuconazole], in that order: “insufficiently active” and >4%.
